For one experiment, the target named is human AT1R (Homo sapiens (Human), UniProt P30556). The experiment in a line: Counterscreen radioligand binding assay, displacement of 125I-[Sar1, Ile8]-Angiotensin II, hAT1R WT. Conditions: for inhibition at 1 µM / inhibition at 10 µM: 125I-[Sar1, Ile8]-Ang II, semi-quantitative score; for inhibition at 1 µM: compound at 1 μM, read-out: % Displaced radioligand at 1 μM; for inhibition at 10 µM: compound at 10 μM, read-out: % Displaced radioligand at 10 μM; for IC50: HEK-293 cell membranes, read-out: Binding affinity On hAT1R IC50. The method in brief: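 Compounds displaced 0.05 nM 125I-[Sar1, Ile8]-Ang II from human AT1R in HEK-293 membranes (1 h, 25° C; Tris/MgCl2/EDTA/BSA buffer, pH 7.4). Readout was filtration and scintillation counting, with non-specific binding set by 10 μM [Sar1]-Ang II. Values are % displacement at 1 μM and […], or IC50 from eight-point four-parameter fits.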
Chain of human AT1R (P30556 whole entry): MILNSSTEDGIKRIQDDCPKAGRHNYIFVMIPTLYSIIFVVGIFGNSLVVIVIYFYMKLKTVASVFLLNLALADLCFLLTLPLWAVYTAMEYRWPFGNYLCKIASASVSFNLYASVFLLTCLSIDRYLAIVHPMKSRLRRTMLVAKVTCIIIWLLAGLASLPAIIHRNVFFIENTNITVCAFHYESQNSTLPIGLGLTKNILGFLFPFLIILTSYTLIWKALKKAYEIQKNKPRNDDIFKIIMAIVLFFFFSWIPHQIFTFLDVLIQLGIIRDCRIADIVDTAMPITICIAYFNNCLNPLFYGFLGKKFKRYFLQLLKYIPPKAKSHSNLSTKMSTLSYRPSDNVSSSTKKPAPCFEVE
A general note: A counterscreen serves to expose hits that act by an unwanted route or on another target.

A further experiment concerns the target human AT2R fused to Cb23 (Homo sapiens, UniProt P50052). The experiment is described as follows: Radioligand binding assay, displacement of 125I-[Sar1, Ile8]-Angiotensin II, hAT2R Cb23. Conditions: displacement of 125I-[Sar1, Ile8]-Angiotensin II, human AT2R fused to Cb23, HEK-293 cell membrane preparations; read-out: Binding affinity on hAT2R_Cb23 IC50. Summed up:
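Membranes from HEK-293 cells expressing human AT2R fused to Cb23 were incubated with 0.05 nM 125I-[Sar1, Ile8]-Angiotensin II in 100 μL buffer (50 mM Tris, 5 mM MgCl2, 1 mM EDTA, 0.1% BSA, pH 7.4) for one hour at 25° C. Ligands were tested as eight-point dose-response curves in duplicate, with C21 and Angiotensin II as references.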
In general terms: In a radioligand displacement assay an active substance lowers the binding of a labelled ligand.

Chain of human AT2R fused to Cb23 (P50052 whole entry, looked up, the tested form may be a part): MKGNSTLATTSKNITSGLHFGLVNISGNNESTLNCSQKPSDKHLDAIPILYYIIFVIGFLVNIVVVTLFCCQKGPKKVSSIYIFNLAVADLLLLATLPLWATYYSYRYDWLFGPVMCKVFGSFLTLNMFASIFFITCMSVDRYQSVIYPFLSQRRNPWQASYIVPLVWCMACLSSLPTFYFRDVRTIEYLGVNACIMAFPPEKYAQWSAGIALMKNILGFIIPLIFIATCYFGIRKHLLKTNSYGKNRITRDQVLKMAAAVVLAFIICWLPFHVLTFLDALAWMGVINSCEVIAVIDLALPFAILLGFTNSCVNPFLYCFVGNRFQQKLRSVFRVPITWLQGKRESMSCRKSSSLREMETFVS

What is called IC50 is the midpoint of a concentration-inhibition curve. As for `CCc1cc(-c2nn[nH]n2)c(N2CCN(Cc3nc4ccccc4s3)CC2)cc1OC(C)C` [Compound A-119, 2-[[4-[4-ethyl-5-isopropoxy-2-(2H-tetrazol-5-yl)phen-yl]piperazin-1-yl]-methyl]-1,3-benzo-thiazole], on human AT1R, the inhibition at 1 µM was less than 30% and the inhibition at 10 µM was less than 30%. Further, the IC50 at human AT2R fused to Cb23 was determined as 9.42 µM.

Take `CCc1cc(OC(C)C)cc(N2CCN(Cc3nc4ccccc4s3)CC2)c1-c1nn[nH]n1` [Compound A-120, 2-[[4-[3-ethyl-5-iso-propoxy-2-(2H-tetrazol-5-yl)phen-yl]piperazin-1-yl]-methyl]-1,3-benzo-thiazole]: on human AT1R, the inhibition at 1 µM is less than 30% and the inhibition at 10 µM is less than 30%. Moreover, the IC50 at human AT2R fused to Cb23 was found to be 0.459 µM.

As to `CC(C)Oc1cc(N2CCN(Cc3nc4ccccc4s3)CC2)c(-c2nn[nH]n2)cc1C1CC1` [Compound A-121, 2-[[4-[4-cycloprop-yl-5-isopropoxy-2-(2H-tetrazol-5-yl)-phenyl]piperazin-1-yl]methyl]-1,3-benzothiazole], on human AT1R, the inhibition at 1 µM is less than 30%, the inhibition at 10 µM was in the range of 30 to 50% and the IC50 turned out to be 11.7 µM. Besides, the IC50 on human AT2R fused to Cb23 came out at 2.78 µM.

Regarding `CC(C)Oc1cc(C2CC2)c(-c2nn[nH]n2)c(N2CCN(Cc3nc4ccccc4s3)CC2)c1` [Compound A-122, 2-[[4-[3-cycloprop-yl-5-isopropoxy-2-(2H-tetrazol-5-yl)-phenyl]piperazin-1-yl]methyl]-1,3-benzothiazole], on human AT1R, the inhibition at 1 µM was less than 30% and the inhibition at 10 µM was less than 30%. Also, on human AT2R fused to Cb23, the IC50 came out at 0.293 µM.

As to `CCOc1cc(-c2nn[nH]n2)c(N2CCN(Cc3nc4ccccc4s3)CC2)cc1OC(C)C` [Compound A-123, 2-[[4-[4-ethoxy-5-isopropoxy-2-(2H-tetrazol-5-yl)phen-yl]piperazin-1-yl]-methyl]-1,3-benzo-thiazole], at human AT1R, the inhibition at 1 µM is less than 30% and the inhibition at 10 µM is less than 30%. Moreover, on human AT2R fused to Cb23, the IC50 was 4.88 µM.

For `Fc1cc(C2CC2)cc(N2CCN(Cc3nc4ccccc4s3)CC2)c1-c1nn[nH]n1` [Compound A-125, 2-[[4-[5-cycloprop-yl-3-fluoro-2-(2H-tetrazol-5-yl)phen-yl]piperazin-1-yl]-methyl]-1,3-benzo-thiazole], at human AT1R, the inhibition at 1 µM was less than 30% and the inhibition at 10 µM was less than 30%. The concentration for half-maximal inhibition (IC50) on human AT2R fused to Cb23 was found to be 0.389 µM.

On to `Cc1cc(C2CC2)cc(N2CCN(Cc3nc4ccccc4s3)CC2)c1-c1nn[nH]n1` [Compound A-127, 2-[[4-[5-cycloprop-yl-3-methyl-2-(2H-tetrazol-5-yl)phen-yl]piperazin-1-yl]-methyl]-1,3-benzo-thiazole], for which, on human AT1R, the inhibition at 1 µM is less than 30% and the inhibition at 10 µM was less than 30%. Also, at human AT2R fused to Cb23, the IC50 amounted to 0.0744 µM.

As for `CCc1cc(C2CC2)cc(N2CCN(Cc3nc4ccccc4s3)CC2)c1-c1nn[nH]n1` [Compound A-128, 2-[[4-[5-cycloprop-yl-3-ethyl-2-(2H-tetrazol-5-yl)phen-yl]piperazin-1-yl]-methyl]-1,3-benzo-thiazole], on human AT1R, the inhibition at 1 µM lay within 30 to 50%, the inhibition at 10 µM is more than 50% and the IC50 worked out at 18.2 µM. Also, at human AT2R fused to Cb23, the IC50 was 2.19 µM.

In the case of `c1ccc2sc(CN3CCN(c4cc(C5CC5)cc(C5CC5)c4-c4nn[nH]n4)CC3)nc2c1` [Compound A-129, 2-[[4-[3,5-dicyclo-propyl-2-(2H-tetrazol-5-yl)phen-yl]piperazin-1-yl]-methyl]-1,3-benzo-thiazole], at human AT1R, the inhibition at 1 µM was less than 30% and the inhibition at 10 µM was less than 30%. On human AT2R fused to Cb23, the IC50 is 0.158 µM.

On to `CC(C)Cc1cc(F)c(-c2nn[nH]n2)c(N2CCN(Cc3nc4ccccc4s3)CC2)c1` [Compound A-132, 2-[[4-[3-fluoro-5-isobutyl-2-(2H-tetrazol-5-yl)phen-yl]piperazin-1-yl]-methyl]-1,3-benzo-thiazole], for which, on human AT1R, the inhibition at 1 µM was less than 30% and the inhibition at 10 µM was less than 30%. For the same compound, at human AT2R fused to Cb23, the half-maximal inhibitory concentration (IC50) was 0.355 µM.

Take `CC(C)Cc1cc(N2CCN(Cc3nc4ccccc4s3)CC2)c(-c2nn[nH]n2)cc1F` [Compound A-133, 2-[[4-[4-fluoro-5-isobutyl-2-(2H-tetrazol-5-yl)phen-yl]piperazin-1-yl]-methyl]-1,3-benzo-thiazole]: at human AT1R, the inhibition at 1 µM is less than 30% and the inhibition at 10 µM was less than 30%. For the same compound, the IC50 at human AT2R fused to Cb23 was 1.19 µM.

With `Cc1cc(-c2nn[nH]n2)c(N2CCN(Cc3nc4ccccc4s3)CC2)cc1CC(C)C` [Compound A-134, 2-[[4-[5-isobutyl-4-methyl-2-(2H-tetrazol-5-yl)phen-yl]piperazin-1-yl]-methyl]-1,3-benzo-thiazole], on human AT1R, the inhibition at 1 µM was less than 30% and the inhibition at 10 µM was less than 30%. At human AT2R fused to Cb23, the IC50 was 9.66 µM.

For `Cc1cc(CC(C)C)cc(N2CCN(Cc3nc4ccccc4s3)CC2)c1-c1nn[nH]n1` [Compound A-135], at human AT1R, the inhibition at 1 µM was less than 30% and the inhibition at 10 µM is less than 30%. Besides, the IC50 at human AT2R fused to Cb23 worked out at 0.022 µM.

Take `CCc1cc(CC(C)C)cc(N2CCN(Cc3nc4ccccc4s3)CC2)c1-c1nn[nH]n1` [Compound A-136, 2-[[4-[3-ethyl-5-isobutyl-2-(2H-tetrazol-5-yl)phen-yl]piperazin-1-yl]-methyl]-1,3-benzo-thiazole]: on human AT1R, the inhibition at 1 µM is less than 30% and the inhibition at 10 µM is less than 30%. On human AT2R fused to Cb23, the IC50 turned out to be 0.0121 µM.

For the compound `CC(C)Cc1cc(C2CC2)c(-c2nn[nH]n2)c(N2CCN(Cc3nc4ccccc4s3)CC2)c1` [Compound A-137, 2-[[4-[3-cycloprop-yl-5-isobutyl-2-(2H-tetrazol-5-yl)-phenyl]piperazin-1-yl]methyl]-1,3-benzothiazole], on human AT1R, the inhibition at 1 µM was less than 30% and the inhibition at 10 µM is less than 30%. In addition, the IC50 at human AT2R fused to Cb23 came to 0.016 µM.

As for `CC(C)Cc1cc(N2CCN(Cc3nc4ccccc4s3)CC2)c(-c2nn[nH]n2)cc1N` [Compound A-138, 4-[4-(1,3-benzo-thiazol-2-ylmethyl)-piperazin-1-yl]-2-isobutyl-5-(2H-tetrazol-5-yl)aniline], on human AT1R, the inhibition at 1 µM is less than 30% and the inhibition at 10 µM was less than 30%. Besides, the IC50 at human AT2R fused to Cb23 was 4.71 µM.

Consider `CNc1cc(-c2nn[nH]n2)c(N2CCN(Cc3nc4ccccc4s3)CC2)cc1CC(C)C` [Compound A-139, 4-[4-(1,3-benzothi-azol-2-ylmethyl)-piperazin-1-yl]-2-isobutyl-N-methyl-5-(2H-tetrazol-5-yl)aniline], for which, on human AT1R, the inhibition at 1 µM is less than 30% and the inhibition at 10 µM was less than 30%. Also, the IC50 on human AT2R fused to Cb23 came to 4.96 µM.

Take `CCNc1cc(-c2nn[nH]n2)c(N2CCN(Cc3nc4ccccc4s3)CC2)cc1CC(C)C` [Compound A-140, 4-[4-(1,3-benzo-thiazol-2-ylmethyl)-piperazin-1-yl]-N-ethyl-2-isobutyl-5-(2H-tetrazol-5-yl)-aniline]: at human AT1R, the inhibition at 1 µM was less than 30%, the inhibition at 10 µM was 30 to 50% and the IC50 is 24.7 µM. Moreover, the IC50 on human AT2R fused to Cb23 amounted to 0.736 µM.

Regarding `CCc1ccc(-c2nn[nH]n2)c(N2CCN(Cc3nc4ccccc4s3)CC2)n1` [Compound A-142, 2-[[4-[6-ethyl-3-(2H-tetrazol-5-yl)-2-pyridyl]piperazin-1-yl]methyl]-1,3-benzothiazole], on human AT1R, the inhibition at 1 µM was less than 30% and the inhibition at 10 µM is 30 to 50%. For the same compound, the half-inhibitory concentration (IC50) on human AT2R fused to Cb23 turned out to be 9.11 µM.

These data come from patent US20240368133A1, “Compounds for the Treatment of Pain, in Particular, Neuropathic Pain, and/or Other Diseases or Disorders that are Associated with AT2R and/or AT2R Mediated Signaling” (Confo Therapeutics N.V., priority 2021, published 2024).
